Where “and” joins values, the source holds several entries; their conditions need not be identical. Identical values can stand only once. Numbers after ± are expanded uncertainties.
Columns and labels:
[1] = refractive index (Na D-line) (dimensionless); settings: 293.1 K; 101.33 kPa; Liquid; Standard Abbe refractometry
[2] = Liquid; for viscosity: Falling or rolling sphere viscometry

## CC(C)CCCCCCCOC(=O)c1ccccc1C(=O)OCCCCCCCC(C)C
[1]
  refractive index: 1.4849 ± 0.0012
[2]; 273.15 K, 101.33 kPa
  mass density: 980.73 ± 0.45 kg/m3 and 980.75 ± 0.11 kg/m3
  viscosity: 627.6 ± 56 mPa·s and 664.5 ± 60 mPa·s
[2]; 278.15 K, 101.33 kPa
  mass density: 977.12 ± 0.12 kg/m3
  viscosity: 393.5 ± 30 mPa·s and 410.8 ± 32 mPa·s and 410.5 ± 32 mPa·s
[2]; 283.15 K, 101.33 kPa
  mass density: 973.48 ± 0.46 kg/m3 and 973.49 ± 0.12 kg/m3
  viscosity: 255.2 ± 17 mPa·s and 266.8 ± 18 mPa·s
[2]; 288.15 K, 101.33 kPa
  mass density: 969.89 ± 0.12 kg/m3
  viscosity: 170.9 ± 9.8 mPa·s and 178.6 ± 10 mPa·s
[2]; 293.1 K, 101.33 kPa, Vibrating tube method
  mass density: 967.6 ± 6.5 kg/m3
[2]; 293.15 K, 101.33 kPa
  mass density: 966.37 ± 0.47 kg/m3 and 966.38 ± 0.13 kg/m3 and 966.37 ± 0.13 kg/m3
  viscosity: 123.5 ± 6.3 mPa·s [middle of 5 runs]
[2]; 293.15 K, 19400 kPa
  viscosity: 202.4 ± 12 mPa·s
[2]; 293.15 K, 39700 kPa
  viscosity: 335 ± 25 mPa·s
[2]; 293.15 K, 59500 kPa
  viscosity: 534.5 ± 45 mPa·s
[2]; 293.15 K, 103600 kPa
  viscosity: 1435.6 ± 160 mPa·s
[2]; 293.15 K, 118200 kPa
  viscosity: 1981.5 ± 250 mPa·s
[2]; 293.15 K, 118900 kPa
  viscosity: 2033.8 ± 260 mPa·s
[2]; 293.15 K, 159600 kPa
  viscosity: 4719.2 ± 720 mPa·s
[2]; 298.15 K, 101.33 kPa
  mass density: 962.83 ± 0.47 kg/m3 and 962.84 ± 0.13 kg/m3
  viscosity: 87.7 ± 4 mPa·s and 84.1 ± 3.8 mPa·s and 88.4 ± 4 mPa·s
[2]; 298.15 K, 25400 kPa
  viscosity: 165.5 ± 9.3 mPa·s
[2]; 298.15 K, 50700 kPa
  viscosity: 300.2 ± 21 mPa·s
[2]; 298.15 K, 75500 kPa
  viscosity: 525 ± 44 mPa·s
[2]; 298.15 K, 100600 kPa
  viscosity: 904.7 ± 89 mPa·s
[2]; 303.15 K, 101.33 kPa
  mass density: 959.31 ± 0.48 kg/m3 and 959.29 ± 0.48 kg/m3 and 959.3 ± 0.14 kg/m3
  viscosity: 65 ± 2.8 mPa·s [middle of 4 runs]
[2]; 308.15 K, 101.33 kPa
  viscosity: 48.9 ± 2.1 mPa·s [middle of 4 runs]
[2]; 313.15 K, 100 kPa
  viscosity: 37.6 ± 3.7 mPa·s and 36.8 ± 3.8 mPa·s
[2]; 313.15 K, 101.33 kPa
  mass density: 952.2 ± 0.49 kg/m3 and 952.21 ± 0.14 kg/m3
  viscosity: 37.5 ± 1.6 mPa·s [middle of 4 runs]
[2]; 313.15 K, 700 kPa
  viscosity: 38.3 ± 1.8 mPa·s
[2]; 313.15 K, 25000 kPa
  viscosity: 65.4 ± 6.3 mPa·s and 63.9 ± 5.3 mPa·s
[2]; 313.15 K, 25800 kPa
  viscosity: 66 ± 2.9 mPa·s
[2]; 313.15 K, 50000 kPa
  viscosity: 109.4 ± 12 mPa·s and 107 ± 12 mPa·s
[2]; 313.15 K, 50600 kPa
  viscosity: 110.3 ± 5.4 mPa·s
[2]; 313.15 K, 75500 kPa
  viscosity: 181 ± 10 mPa·s
[2]; 313.15 K, 100000 kPa
  viscosity: 290 ± 47 mPa·s and 271 ± 44 mPa·s and 273 ± 44 mPa·s
[2]; 313.15 K, 100300 kPa
  viscosity: 291.6 ± 20 mPa·s
[2]; 313.15 K, 125100 kPa
  viscosity: 463.2 ± 37 mPa·s
[2]; 313.15 K, 150400 kPa
  viscosity: 732.6 ± 70 mPa·s
[2]; 313.15 K, 175800 kPa
  viscosity: 1143.6 ± 120 mPa·s
[2]; 313.15 K, 197600 kPa
  viscosity: 1680 ± 200 mPa·s
[2]; 313.15 K, 200000 kPa
  viscosity: 1580 ± 250 mPa·s and 1665 ± 260 mPa·s and 1530 ± 300 mPa·s
[2]; 313.15 K, 227900 kPa
  viscosity: 2671.7 ± 360 mPa·s
[2]; 313.15 K, 252000 kPa
  viscosity: 3750 ± 770 mPa·s and 3932.3 ± 580 mPa·s
[2]; 313.15 K, 300000 kPa
  viscosity: 8110 ± 1700 mPa·s and 7270 ± 1600 mPa·s
[2]; 313.15 K, 400000 kPa
  viscosity: 36300 ± 9800 mPa·s and 33700 ± 9100 mPa·s
[2]; 313.15 K, 500000 kPa
  viscosity: 168000 ± 53000 mPa·s and 158000 ± 49000 mPa·s
[2]; 313.15 K, 600000 kPa
  viscosity: 782000 ± 280000 mPa·s and 694000 ± 250000 mPa·s
[2]; 313.15 K, 700000 kPa
  viscosity: 3820000 ± 1.6e+06 mPa·s and 3410000 ± 1.4e+06 mPa·s
[2]; 313.15 K, 800000 kPa
  viscosity: 2.36e+07 ± 1.1e+07 mPa·s and 1.98e+07 ± 8.7e+06 mPa·s
[2]; 323.15 K, 101.33 kPa
  mass density: 945.12 ± 0.5 kg/m3 and 945.13 ± 0.15 kg/m3
  viscosity: 23 ± 1 mPa·s and 23.7 ± 1 mPa·s
[2]; 333.15 K, 101.33 kPa
  mass density: 938.05 ± 0.51 kg/m3 and 938.07 ± 0.16 kg/m3
  viscosity: 15.9 ± 0.7 mPa·s [middle of 4 runs]
[2]; 338.15 K, 100 kPa
  viscosity: 13.2 ± 1.3 mPa·s and 13.08 ± 1.4 mPa·s
[2]; 338.15 K, 101.33 kPa
  viscosity: 13.3 ± 0.6 mPa·s and 13.2 ± 0.5 mPa·s and 13 ± 0.5 mPa·s
[2]; 338.15 K, 500 kPa
  viscosity: 13.3 ± 0.6 mPa·s
[2]; 338.15 K, 25000 kPa
  viscosity: 20.2 ± 2.3 mPa·s
[2]; 338.15 K, 30500 kPa
  viscosity: 22.7 ± 1 mPa·s
[2]; 338.15 K, 50000 kPa
  viscosity: 30.7 ± 3.8 mPa·s and 31.1 ± 3.8 mPa·s
[2]; 338.15 K, 60700 kPa
  viscosity: 37.8 ± 1.6 mPa·s
[2]; 338.15 K, 90600 kPa
  viscosity: 60.9 ± 2.9 mPa·s
[2]; 338.15 K, 99500 kPa
  viscosity: 70.9 ± 3.4 mPa·s
[2]; 338.15 K, 100000 kPa
  viscosity: 67.7 ± 10 mPa·s and 69.4 ± 9.8 mPa·s
[2]; 338.15 K, 120500 kPa
  viscosity: 96.3 ± 5 mPa·s
[2]; 338.15 K, 150100 kPa
  viscosity: 149.6 ± 8.8 mPa·s
[2]; 338.15 K, 180400 kPa
  viscosity: 229.2 ± 16 mPa·s
[2]; 338.15 K, 200000 kPa
  viscosity: 291 ± 56 mPa·s and 286 ± 53 mPa·s and 299 ± 54 mPa·s
[2]; 338.15 K, 200600 kPa
  viscosity: 307.8 ± 23 mPa·s
[2]; 338.15 K, 250700 kPa
  viscosity: 614.9 ± 58 mPa·s
[2]; 338.15 K, 275600 kPa
  viscosity: 856.5 ± 85 mPa·s
[2]; 338.15 K, 300000 kPa
  viscosity: 1131 ± 260 mPa·s [middle of 4 runs]
[2]; 338.15 K, 301000 kPa
  viscosity: 1203.7 ± 130 mPa·s
[2]; 338.15 K, 321800 kPa
  viscosity: 1571 ± 180 mPa·s
[2]; 338.15 K, 352700 kPa
  viscosity: 2381 ± 310 mPa·s
[2]; 338.15 K, 370500 kPa
  viscosity: 2998.7 ± 410 mPa·s
[2]; 338.15 K, 394000 kPa
  viscosity: 3890 mPa·s
[2]; 338.15 K, 394400 kPa
  viscosity: 4005.5 ± 590 mPa·s
[2]; 338.15 K, 500000 kPa
  viscosity: 14200 ± 5700 mPa·s and 13100 ± 5400 mPa·s
[2]; 338.15 K, 1000000 kPa
  viscosity: 7420000 ± 3e+06 mPa·s and 6141000 ± 2.5e+06 mPa·s
[2]; 343.15 K, 101.33 kPa
  mass density: 930.99 ± 0.53 kg/m3 and 931.01 ± 0.16 kg/m3
  viscosity: 11.2 ± 0.5 mPa·s [middle of 4 runs]
[2]; 348.15 K, 101.33 kPa
  viscosity: 9.63 ± 0.4 mPa·s and 9.65 ± 0.4 mPa·s
[2]; 348.15 K, 11100 kPa
  viscosity: 11.7 ± 0.5 mPa·s
[2]; 348.15 K, 26500 kPa
  viscosity: 15.1 ± 0.6 mPa·s
[2]; 348.15 K, 52600 kPa
  viscosity: 22.9 ± 1 mPa·s
[2]; 348.15 K, 78900 kPa
  viscosity: 33.7 ± 1.4 mPa·s
[2]; 348.15 K, 81000 kPa
  viscosity: 35 ± 1.5 mPa·s
[2]; 348.15 K, 105700 kPa
  viscosity: 49.67 ± 2.1 mPa·s
[2]; 348.15 K, 124200 kPa
  viscosity: 65.18 ± 2.8 mPa·s
[2]; 348.15 K, 125700 kPa
  viscosity: 66 ± 2.8 mPa·s
[2]; 348.15 K, 149800 kPa
  viscosity: 92 ± 4.2 mPa·s
[2]; 348.15 K, 175700 kPa
  viscosity: 130.3 ± 6.7 mPa·s
[2]; 348.15 K, 202300 kPa
  viscosity: 186.52 ± 11 mPa·s
[2]; 348.15 K, 225400 kPa
  viscosity: 250 ± 16 mPa·s
[2]; 348.15 K, 274700 kPa
  viscosity: 467.3 ± 38 mPa·s
[2]; 348.15 K, 275700 kPa
  viscosity: 472.3 ± 38 mPa·s
[2]; 348.15 K, 324900 kPa
  viscosity: 866.8 ± 85 mPa·s
[2]; 348.15 K, 372500 kPa
  viscosity: 1541.5 ± 180 mPa·s
[2]; 353.15 K, 101.33 kPa
  mass density: 923.95 ± 0.54 kg/m3 and 923.98 ± 0.17 kg/m3 and 923.97 ± 0.17 kg/m3
  viscosity: 8.12 ± 0.34 mPa·s and 8.35 ± 0.34 mPa·s
[2]; 363.15 K, 101.33 kPa
  mass density: 916.91 ± 0.55 kg/m3 and 916.94 ± 0.18 kg/m3
[2]; 373.15 K, 100 kPa
  viscosity: 4.67 ± 0.59 mPa·s and 4.7 ± 0.59 mPa·s
[2]; 373.15 K, 25000 kPa
  viscosity: 6.73 ± 0.88 mPa·s and 6.86 ± 0.69 mPa·s
[2]; 373.15 K, 50000 kPa
  viscosity: 9.66 ± 1.3 mPa·s and 9.77 ± 1.4 mPa·s
[2]; 373.15 K, 100000 kPa
  viscosity: 18 ± 2.9 mPa·s and 18.5 ± 3 mPa·s
[2]; 373.15 K, 200000 kPa
  viscosity: 56.6 ± 13 mPa·s and 57.8 ± 12 mPa·s
[2]; 373.15 K, 300000 kPa
  viscosity: 163 ± 52 mPa·s and 166 ± 50 mPa·s and 165 ± 50 mPa·s
[2]; 373.15 K, 400000 kPa
  viscosity: 453 ± 200 mPa·s [middle of 4 runs]
